From the NIST ThermoML archive (doi:10.1016/j.jct.2013.10.025)

Assay: xn = mol fraction of the nth substance listed
Conditions: 101 kPa, Liquid; for viscosity: Capillary tube (Ostwald / Ubbelohde) method; for speed of sound: Sing-around technique in a fixed-path interferometer; for mass density: Vibrating tube method

C1CCOC1 [tetrahydrofuran] + CCCCCCCCO
Conditions	mass density [kg/m3]	speed of sound [m/s]	viscosity [mPa·s]
298.15 K, x1 = 0.0541	823.522	1344.5	6.305
298.15 K, x1 = 0.1044	825.135	1341.3	5.403
298.15 K, x1 = 0.1535	826.78	1337.5	4.698
298.15 K, x1 = 0.205	828.609	1333.5	4.025
298.15 K, x1 = 0.2574	830.564	1329.8	3.477
298.15 K, x1 = 0.3054	832.449	1326.5	2.996
298.15 K, x1 = 0.4003	836.541	1319.6	2.307
298.15 K, x1 = 0.5004	841.464	1312.2	1.747
298.15 K, x1 = 0.6111	847.802	1302.9	1.271
298.15 K, x1 = 0.7032	853.984	1295.5	0.996
298.15 K, x1 = 0.8116	862.541	1287.9	0.747
298.15 K, x1 = 0.9048	871.362	1281.7	0.589
303.15 K, x1 = 0.0541	819.992	1327.7	5.227
303.15 K, x1 = 0.1044	821.552	1324.3	4.562
303.15 K, x1 = 0.1535	823.145	1320.4	3.988
303.15 K, x1 = 0.205	824.915	1316	3.395
303.15 K, x1 = 0.2574	826.809	1312.4	3.014
303.15 K, x1 = 0.3054	828.634	1308.7	2.602
303.15 K, x1 = 0.4003	832.585	1301.4	2.089
303.15 K, x1 = 0.5004	837.343	1293.4	1.566
303.15 K, x1 = 0.6111	843.471	1283.4	1.173
303.15 K, x1 = 0.7032	849.444	1275.5	0.931
303.15 K, x1 = 0.8116	857.718	1266.9	0.715
303.15 K, x1 = 0.9048	866.235	1259.7	0.566
308.15 K, x1 = 0.0541	816.44	1310.7	4.208
308.15 K, x1 = 0.1044	817.948	1307.3	3.709
308.15 K, x1 = 0.1535	819.488	1303	3.217
308.15 K, x1 = 0.205	821.202	1298.8	2.779
308.15 K, x1 = 0.2574	823.029	1294.7	2.46
308.15 K, x1 = 0.3054	824.796	1290.9	2.176
308.15 K, x1 = 0.4003	828.614	1283.1	1.748
308.15 K, x1 = 0.5004	833.216	1274.6	1.348
308.15 K, x1 = 0.6111	839.116	1264.1	1.014
308.15 K, x1 = 0.7032	844.874	1255.2	0.819
308.15 K, x1 = 0.8116	852.874	1244.9	0.632
308.15 K, x1 = 0.9048	861.083	1237	0.514
313.15 K, x1 = 0.0541	812.862	1294.2	–
313.15 K, x1 = 0.1044	814.315	1290.6	–
313.15 K, x1 = 0.1535	815.803	1286.2	–
313.15 K, x1 = 0.205	817.465	1282	–
313.15 K, x1 = 0.2574	819.222	1277.6	–
313.15 K, x1 = 0.3054	820.932	1273.8	–
313.15 K, x1 = 0.4003	824.625	1265.5	–
313.15 K, x1 = 0.5004	829.064	1256.5	–
313.15 K, x1 = 0.6111	834.743	1245.4	–
313.15 K, x1 = 0.7032	840.294	1236.1	–
313.15 K, x1 = 0.8116	848	1225	–
313.15 K, x1 = 0.9048	855.903	1216.3	–
